{"source": "ChEMBL document CHEMBL1201862", "about": "“PubChem BioAssay data set” (2004)", "assay_in_all_cases": "DTP human tumour cell line panel, 48 h", "key": {"M14": {"system": "M14"}, "SNB-75": {"system": "SNB-75"}, "U-251": {"system": "U-251"}, "EKVX": {"system": "EKVX"}, "HOP-62": {"system": "HOP-62"}, "MOLT-4": {"system": "MOLT-4"}, "IGROV-1": {"system": "IGROV-1"}, "SR": {"system": "SR"}, "A498": {"system": "A498"}, "CCRF-CEM": {"system": "CCRF-CEM"}, "RXF 393": {"system": "RXF 393"}, "NCI-H460": {"system": "NCI-H460"}, "SF-539": {"system": "SF-539"}, "A549": {"system": "A549"}, "SW-620": {"system": "SW-620"}, "XF498": {"system": "XF498"}, "LXFL 529": {"system": "LXFL 529"}, "UACC-62": {"system": "UACC-62"}, "SK-MEL-28": {"system": "SK-MEL-28"}, "HCT-15": {"system": "HCT-15"}, "K562": {"system": "K562"}, "HL-60": {"system": "HL-60"}, "TK-10": {"system": "TK-10"}, "786-0": {"system": "786-0"}, "NCI-H226": {"system": "NCI-H226"}, "OVCAR-3": {"system": "OVCAR-3"}, "LOX IMVI": {"system": "LOX IMVI"}, "UACC-257": {"system": "UACC-257"}, "RPMI-8226": {"system": "RPMI-8226"}, "RXF 631": {"system": "RXF 631"}, "Malme-3M": {"system": "Malme-3M"}, "DLD-1": {"system": "DLD-1"}, "OVCAR-8": {"system": "OVCAR-8"}, "DMS-273": {"system": "DMS-273"}, "SF-295": {"system": "SF-295"}, "SK-MEL-2": {"system": "SK-MEL-2"}, "KM-20L2": {"system": "KM-20L2"}, "HCT-116": {"system": "HCT-116"}, "UO-31": {"system": "UO-31"}, "SN12C": {"system": "SN12C"}, "COLO 205": {"system": "COLO 205"}, "ACHN": {"system": "ACHN"}, "DMS-114": {"system": "DMS-114"}, "SK-MEL-5": {"system": "SK-MEL-5"}, "SNB-19": {"system": "SNB-19"}, "M19-MEL": {"system": "M19-MEL"}, "HT-29": {"system": "HT-29"}, "SF-268": {"system": "SF-268"}, "OVCAR-4": {"system": "OVCAR-4"}, "HCC 2998": {"system": "HCC 2998"}, "NCI-H23": {"system": "NCI-H23"}}, "note": "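Five concentrations, 48 hours, 96-well plates. GI50 marks 50% less growth.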 Active and inactive are the calls of the source. Cut-off read from the data, not from the text of the source: active = GI50 up to about 1.1 µM and inactive = higher.", "data": [{"smiles": "Oc1c2c(nc3cc4c(cc13)OCO4)-c1ccccc1CC2", "values": [{"measurement": "GI50", "setting": "M14", "result": "> 100 µM (inactive)"}, {"measurement": "GI50", "setting": "SNB-75", "result": "23.6 µM (inactive)"}, {"measurement": "GI50", "setting": "U-251", "result": "> 100 µM (inactive)"}, {"measurement": "GI50", "setting": "EKVX", "result": "> 100 µM (inactive)"}, {"measurement": "GI50", "setting": "HOP-62", "result": "> 100 µM (inactive)"}, {"measurement": "GI50", "setting": "MOLT-4", "result": "> 100 µM (inactive)"}, {"measurement": "GI50", "setting": "IGROV-1", "result": "> 100 µM (inactive)"}, {"measurement": "GI50", "setting": "SR", "result": "> 100 µM (inactive)"}, {"measurement": "GI50", "setting": "A498", "result": "> 100 µM (inactive)"}, {"measurement": "GI50", "setting": "CCRF-CEM", "result": "> 100 µM (inactive)"}, {"measurement": "GI50", "setting": "RXF 393", "result": "78 µM (inactive)"}, {"measurement": "GI50", "setting": "NCI-H460", "result": "> 100 µM (inactive)"}, {"measurement": "GI50", "setting": "SF-539", "result": "> 100 µM (inactive)"}, {"measurement": "GI50", "setting": "A549", "result": "> 100 µM (inactive)"}, {"measurement": "GI50", "setting": "SW-620", "result": "> 100 µM (inactive)"}, {"measurement": "GI50", "setting": "XF498", "result": "> 100 µM (inactive)"}, {"measurement": "GI50", "setting": "LXFL 529", "result": "> 100 µM (inactive)"}, {"measurement": "GI50", "setting": "UACC-62", "result": "> 100 µM (inactive)"}, {"measurement": "GI50", "setting": "SK-MEL-28", "result": "> 100 µM (inactive)"}, {"measurement": "GI50", "setting": "HCT-15", "result": "> 100", "unit": "µM"}, {"measurement": "GI50", "setting": "K562", "result": "> 100 µM (inactive)"}, {"measurement": "GI50", "setting": "HL-60", "result": "> 100 µM (inactive)"}, {"measurement": "GI50", "setting": "TK-10", "result": "> 100 µM (inactive)"}, {"measurement": "GI50", "setting": "786-0", "result": "> 100 µM (inactive)"}, {"measurement": "GI50", "setting": "NCI-H226", "result": "> 100 µM (inactive)"}, {"measurement": "GI50", "setting": "OVCAR-3", "result": "> 100 µM (inactive)"}, {"measurement": "GI50", "setting": "LOX IMVI", "result": "> 100 µM (inactive)"}, {"measurement": "GI50", "setting": "UACC-257", "result": "> 100 µM (inactive)"}, {"measurement": "GI50", "setting": "RPMI-8226", "result": "> 100 µM (inactive)"}, {"measurement": "GI50", "setting": "RXF 631", "result": "> 100 µM (inactive)"}, {"measurement": "GI50", "setting": "Malme-3M", "result": "> 100 µM (inactive)"}, {"measurement": "GI50", "setting": "DLD-1", "result": "> 100 µM (inactive)"}, {"measurement": "GI50", "setting": "OVCAR-8", "result": "> 100 µM (inactive)"}, {"measurement": "GI50", "setting": "DMS-273", "result": "> 100 µM (inactive)"}, {"measurement": "GI50", "setting": "SF-295", "result": "> 100 µM (inactive)"}, {"measurement": "GI50", "setting": "SK-MEL-2", "result": "> 100 µM (inactive)"}, {"measurement": "GI50", "setting": "KM-20L2", "result": "> 100 µM (inactive)"}, {"measurement": "GI50", "setting": "HCT-116", "result": "> 100 µM (inactive)"}, {"measurement": "GI50", "setting": "UO-31", "result": "> 100 µM (inactive)"}, {"measurement": "GI50", "setting": "SN12C", "result": "> 100 µM (inactive)"}, {"measurement": "GI50", "setting": "COLO 205", "result": "> 100 µM (inactive)"}, {"measurement": "GI50", "setting": "ACHN", "result": "> 100 µM (inactive)"}, {"measurement": "GI50", "setting": "DMS-114", "result": "> 100 µM (inactive)"}, {"measurement": "GI50", "setting": "SK-MEL-5", "result": "> 100 µM (inactive)"}, {"measurement": "GI50", "setting": "SNB-19", "result": "> 100 µM (inactive)"}, {"measurement": "GI50", "setting": "M19-MEL", "result": "> 100 µM (inactive)"}, {"measurement": "GI50", "setting": "HT-29", "result": "> 100 µM (inactive)"}, {"measurement": "GI50", "setting": "SF-268", "result": "> 100 µM (inactive)"}, {"measurement": "GI50", "setting": "OVCAR-4", "result": "> 100 µM (inactive)"}, {"measurement": "GI50", "setting": "HCC 2998", "result": "> 100 µM (inactive)"}, {"measurement": "GI50", "setting": "NCI-H23", "result": "> 100 µM (inactive)"}]}]}
